Target: T1, Taste receptor type 2 member 46 (Homo sapiens) (UniProt P59540)
T1 sequence (whole entry): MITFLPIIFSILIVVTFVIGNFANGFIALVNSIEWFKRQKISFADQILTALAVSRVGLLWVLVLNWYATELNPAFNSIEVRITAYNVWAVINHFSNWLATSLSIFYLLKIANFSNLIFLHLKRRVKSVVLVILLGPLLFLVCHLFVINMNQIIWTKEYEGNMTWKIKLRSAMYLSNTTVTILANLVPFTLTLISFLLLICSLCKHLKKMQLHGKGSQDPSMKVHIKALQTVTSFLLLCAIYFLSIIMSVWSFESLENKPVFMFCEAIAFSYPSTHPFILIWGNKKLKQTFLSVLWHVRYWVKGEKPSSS
Test: Agonist activity human TAS2R46 transiently expressed in HEK293T/Galpha16-gustducin 44 cells assessed as effect on calcium flux by measuring deltaF/F0 ratio by Fluo-4-AM dye based FLIPR assay
Assay type: functional, cell-based

Structure (SMILES): COc1ccc2c(c1)[C@]13CCCC[C@@H]1[C@H](C2)N(C)CC3
- Activity: Dose-dependent effect
